Assay results from patent US7960614B2, “Plant transformation and selection” (Arborgen, LLC, priority 2003, dated 2011).

Assays:
[1] = test system: 10 different loblolly and hybrid pine lines; assay: Growth on casein hydrolysate or mixture AA4 with 5-methyltryptophan (FIG. 11); format: cell-based, Pinus taeda and hybrid pine; details: 0, 3, 10, or 30 mg/L 5-methyltryptophan
Source text: In another experiment, 10 different loblolly and hybrid pine lines were used, from eight genetically diverse families. These lines were initiated and cryopreserved as described in Example 26, and were placed into uniform suspension cultures and plated onto the respective media treatments as described in Example 26. Media for the experiment comprised DCR2 maintenance media containing either 0.5 g/L casein hydrolysate, 0.5 g/L of the derived mixture AA4 having the proportions shown in Table 24, or lacking both casein and the amino acid mixtures, and each of these treatments were provided with each of 0, 3, 10, or 30 mg/L treatments of 5-methyltryptophan (5MT). The vertical axis is the total weight increase in grams after the respective period.

loblolly cell lines [2] = assay: asa2 (pWVC33) selection on Geneticin, 5MT or AMT, PCR check (Example 32); format: cell-based, Pinus taeda; details: Geneticin 15 mg/L with casein hydrolysate, 5MT or AMT 30 mg/L with AA4
Protocol: Two loblolly cell lines were prepared for transformation using the method of Example 28, and co-cultivated with Agrobacterium tumefaciens transformed with pWVC33 (FIG. 7) as described in Example 28. Following eradication of Agrobacterium, each cell line was equally divided onto 6 plates each of 5 different selection media containing either casein hydrolysate and Geneticin at 15 mg/L, or amino acid mixture AA4 and either 5-methyltryptophan (5MT) at 30 or 50 mg/L or […] (AMT) at 30 or 50 mg/L. The results are show in FIG. 12. Putatively transformed sublines grow on Geneticin-containing plates and on both selection treatments where 30 mg/L of the methylated tryptophan selective analog was incorporated.

[3] = test system: 13 loblolly and hybrid pine lines; assay: Growth on synthetic casein hydrolysate mixtures with Ally (FIG. 10); format: cell-based, Pinus taeda and hybrid pine; details: media with amino acid mixture in which branched chain amino acids are absent; Ally 0, 10, 30, or 50 mM
Protocol: The synthetic mixtures were tested in 13 loblolly and hybrid pine lines from 7 genetically diverse families. These lines were initiated and cryopreserved as described in Example 26, and were placed into uniform suspension cultures and plated onto the respective media treatments as described in Example 27. Media for the experiment comprised DCR2 maintenance media containing either 0.5 g/L casein hydrolysate, 0.5 g/L of one of the derived mixtures having the proportions shown in Table 24, or lacking both casein and the amino acid mixtures, and each of these treatments were provided with each of 0, 10, 30, or 50 mM treatments of the herbicide Ally® (commercially available from Dupont™).

loblolly cell lines [4] = assay: pWVC23 transformants selected on Ally, checked on Geneticin and by PCR (Example 30); format: cell-based, Pinus taeda; details: Ally at either 50 or 100 nM
Protocol: Two loblolly cell lines were prepared for transformation using the same methods of Example 28, and co-cultivated with Agrobacterium tumefaciens transformed with pWVC23(FIG. 3), also as described in Example 28. Following eradication of Agrobacterium, each cell line was equally divided onto selection medium containing either Geneticin at 15 mg/L or Ally at either 50 or 100 nM. After putatively transformed sublines were grown to a sufficient size, nine sublines grown on Ally-containing media were transferred to Geneticin-containing media to check transformation status rapidly before PCR. 100% of these lines are able to grow on Geneticin-containing media. Five of these lines were then checked with PCR using the six primer pairs described in Example 28. 100% of these lines were confirmed postive transformants by PCR.

loblolly pine cell lines = assay: als/Ally selection on medium without casein hydrolysate, PCR verification (Example 28); format: cell-based, Pinus taeda; details: selection on 50 nM or 100 nm Ally, no casein hydrolysate; seven sublines tested by PCR
Source text: In this example, five loblolly pine cell lines from four elite families were transformed with plasmids containing the als selectable marker, and selection was done on a sulfonylurea-containing selection medium modified to exclude casein hydrolysate. The five pine cell lines were initiated as described in Example 26, except that one of the five lines was an elite loblolly cross grown in an International Paper seed orchard in Georgia. The lines were cryopreserved, retrieved, and cultured as uniform suspensions as described in Example 26.
To prepare for gene transfer, polyester membrane supports were sterilized by autoclaving and placed in separate sterile Buchner funnels, and for each of six replicate plates per cell line, one to three milliliters of pine embryogenic suspension was pipetted onto each support such that the embryogenic tissue was evenly distributed. The liquid medium was suctioned from the tissues and each support bearing the embryogenic tissue was placed on gelled DCR3 preparation medium for Agrobacterium inoculation according to the methods described in U.S. Patent Publication No. 20020100083. […]

Cc1ccc2[nH]cc(C[C@H](N)C(=O)O)c2c1 [5MT30, 5-methyltryptophan]
reduction in growth, FIG. 11 [1]: only in the absence of tryptophan is it possible to obtain satisfactory reduction in growth
False positive Frequency (loblolly cell lines [2]): 0.13
PCR confirmed positive (number of lines) (loblolly cell lines [2]; of 12, 8, 22 lines PCR tested): 7

COC(=O)c1ccccc1S(=O)(=O)NC(=O)Nc1nc(C)nc(OC)n1 [Ally]
growth of cells, FIG. 10 [3]: growth is retarded or stopped to a significant degree
lines confirmed positive transformants by PCR (loblolly cell lines [4]; five lines checked): 100%
Ally-selected sublines able to grow on Geneticin-containing media (loblolly cell lines [4]; nine sublines): 100%
false positive rate (loblolly pine cell lines): 14%
